In ChEMBL document CHEMBL1201862, “PubChem BioAssay data set” (2004):
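96-well plates; 48 h exposure; 5 concentrations. Endpoints by linear interpolation between flanking doses. Not reached: highest tested concentration assigned. GI50 marks 50% less growth.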 Calls of active or inactive are those of the source. No stated cut-off is given here; in the data, active = GI50 up to about 1.1 µM and inactive = higher.

Tests used:
Test in all cases: NCI anticancer screen, dose series, 48 h
786-0 = system: 786-0
A549 = system: A549
ACHN = system: ACHN
CAKI-1 = system: CAKI-1
COLO 205 = system: COLO 205
HCT-116 = system: HCT-116
HL-60 = system: HL-60
KM12 = system: KM12
M14 = system: M14
NCI-H23 = system: NCI-H23
OVCAR-3 = system: OVCAR-3
RPMI-8226 = system: RPMI-8226
SF-268 = system: SF-268
SF-295 = system: SF-295
SF-539 = system: SF-539
SK-MEL-5 = system: SK-MEL-5
SNB-19 = system: SNB-19
UACC-62 = system: UACC-62
UO-31 = system: UO-31
OVCAR-4 = system: OVCAR-4

SMILES	GI50 (786-0)	GI50 (A549)	GI50 (ACHN)	GI50 (CAKI-1)	GI50 (COLO 205)	GI50 (HCT-116)	GI50 (HL-60)	GI50 (KM12)	GI50 (M14)	GI50 (NCI-H23)	GI50 (OVCAR-3)	GI50 (RPMI-8226)	GI50 (SF-268)	GI50 (SF-295)	GI50 (SF-539)	GI50 (SK-MEL-5)	GI50 (SNB-19)	GI50 (UACC-62)	GI50 (UO-31)	GI50 (OVCAR-4)
COc1ccc2ccccc2c1C1NC(=O)c2ccccc2N1 (centres undefined)	1.53 µM (inactive)	1.51 µM (inactive)	1.26 µM (inactive)	2.62 µM (inactive)	1.87 µM (inactive)	0.614 µM (active)	0.0518 µM (active)	0.733 µM (active)	0.951 µM (active)	4.67 µM (inactive)	0.398 µM (active)	0.659 µM (active)	3.08 µM (inactive)	0.578 µM (active)	1.55 µM (inactive)	0.384 µM (active)	2.84 µM (inactive)	0.455 µM (active)	11.3 µM (inactive)	–
CCOC(=O)Cc1cc(=O)oc2cc(O)ccc12	> 100 µM (inactive)	> 100 µM (inactive)	> 100 µM (inactive)	> 100 µM (inactive)	> 100 µM (inactive)	> 100 µM (inactive)	> 100 µM (inactive)	> 100 µM (inactive)	> 100 µM (inactive)	> 100 µM (inactive)	> 100 µM (inactive)	> 100 µM (inactive)	> 100 µM (inactive)	> 100 µM (inactive)	> 100 µM (inactive)	> 100 µM (inactive)	> 100 µM (inactive)	> 100 µM (inactive)	> 100 µM (inactive)	–
O=C(NCCN(CCNC(=O)c1cccc(O)c1O)CCNC(=O)c1cccc(O)c1O)c1cccc(O)c1O [TRENCAM]	5.89 µM (inactive)	15 µM (inactive)	4.2 µM (inactive)	21.9 µM (inactive)	5.15 µM (inactive)	4.2 µM (inactive)	8.02 µM (inactive)	4.4 µM (inactive)	5.55 µM (inactive)	11.5 µM (inactive)	2.69 µM (inactive)	–	2.06 µM (inactive)	25.4 µM (inactive)	3.85 µM (inactive)	2.75 µM (inactive)	5.22 µM (inactive)	4.78 µM (inactive)	14.9 µM (inactive)	0.578 µM (active)
COc1cccc(C=C2N=C(C)N(n3c(-c4ccccc4)nc4ccccc4c3=O)C2=O)c1	> 100 µM (inactive)	> 100 µM (inactive)	> 100 µM (inactive)	> 100 µM (inactive)	> 100 µM (inactive)	> 100 µM (inactive)	> 100 µM (inactive)	> 100 µM (inactive)	> 100 µM (inactive)	> 100 µM (inactive)	–	59 µM (inactive)	> 100 µM (inactive)	95.5 µM (inactive)	> 100 µM (inactive)	> 100 µM (inactive)	> 100 µM (inactive)	> 100 µM (inactive)	> 100 µM (inactive)	–
O=C(Cc1nc2ccccc2c(=O)n1-c1c(Cl)cccc1Cl)c1ccncc1	24.6 µM (inactive)	21.4 µM (inactive)	17.9 µM (inactive)	23.6 µM (inactive)	17.8 µM (inactive)	17.8 µM (inactive)	12 µM (inactive)	15.8 µM (inactive)	30.6 µM (inactive)	36.8 µM (inactive)	21.3 µM (inactive)	–	31 µM (inactive)	18 µM (inactive)	18.4 µM (inactive)	15.9 µM (inactive)	31.4 µM (inactive)	22.7 µM (inactive)	13.3 µM (inactive)	27.5 µM (inactive)
